Laboratory results taken from ChEMBL document CHEMBL1152257, “New diterpenoids and the bioactivity of Erythrophleum fordii” (Bioorg Med Chem, 2008).

Columns and labels:
[1] = tested on: BV-2; assay: Inhibition of NADPH oxidase in LPS-induced mouse BV2 cells assessed as NOX-dependent ROS production at 50 uM; assay type: cell-based
[2] = molecular target: T1, Nitric oxide synthase, inducible (Mus musculus, UniProt P29477); assay: Inhibition of iNOS-mediated NO production in LPS-induced mouse BV2 cells; assay type: cell-based, BV-2
T1 sequence (P29477 whole entry): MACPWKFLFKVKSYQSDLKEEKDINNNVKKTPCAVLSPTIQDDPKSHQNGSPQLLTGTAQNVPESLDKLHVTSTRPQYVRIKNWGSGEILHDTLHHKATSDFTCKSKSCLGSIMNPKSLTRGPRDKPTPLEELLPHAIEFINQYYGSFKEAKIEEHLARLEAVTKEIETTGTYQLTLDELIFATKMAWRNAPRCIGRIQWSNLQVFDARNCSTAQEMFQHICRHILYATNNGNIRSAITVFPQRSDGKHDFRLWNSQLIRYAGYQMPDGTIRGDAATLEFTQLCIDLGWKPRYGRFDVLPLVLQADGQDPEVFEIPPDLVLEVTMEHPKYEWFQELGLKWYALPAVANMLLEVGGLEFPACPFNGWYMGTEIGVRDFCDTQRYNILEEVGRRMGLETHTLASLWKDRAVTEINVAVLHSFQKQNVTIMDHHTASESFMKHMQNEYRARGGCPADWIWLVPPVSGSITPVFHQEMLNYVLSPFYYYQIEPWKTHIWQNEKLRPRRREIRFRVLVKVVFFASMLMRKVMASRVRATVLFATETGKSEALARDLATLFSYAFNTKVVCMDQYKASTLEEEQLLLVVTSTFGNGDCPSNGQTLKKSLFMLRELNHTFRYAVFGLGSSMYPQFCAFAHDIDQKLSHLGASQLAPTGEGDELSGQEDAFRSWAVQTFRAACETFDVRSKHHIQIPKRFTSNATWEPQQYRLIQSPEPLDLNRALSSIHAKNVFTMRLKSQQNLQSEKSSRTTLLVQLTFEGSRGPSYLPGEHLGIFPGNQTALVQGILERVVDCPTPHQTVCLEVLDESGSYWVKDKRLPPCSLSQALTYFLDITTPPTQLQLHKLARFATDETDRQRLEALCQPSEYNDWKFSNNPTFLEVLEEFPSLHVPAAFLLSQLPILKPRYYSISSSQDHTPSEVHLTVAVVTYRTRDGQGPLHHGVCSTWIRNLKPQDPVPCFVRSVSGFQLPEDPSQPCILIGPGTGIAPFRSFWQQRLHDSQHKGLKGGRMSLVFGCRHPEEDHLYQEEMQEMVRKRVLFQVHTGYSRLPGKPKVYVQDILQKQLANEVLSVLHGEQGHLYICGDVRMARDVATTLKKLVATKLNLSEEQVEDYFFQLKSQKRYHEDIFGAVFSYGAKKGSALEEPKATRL

[3] = tested on: Radical scavenging activity; assay: Antioxidant activity assessed as DPPH radical scavenging activity at 50 uM; assay type: functional

SMILES	inhibition [1]	IC50 [2]	Activity [3]
C[C@@H](O)/C=C/[C@@]1(O)C(C)(C)C[C@H](O)C[C@@]1(C)O	25.2%	> 50 µM	–
C[C@@H]1O[C@@H](Oc2c(-c3ccc(O)cc3)oc3cc(O)cc(O)c3c2=O)[C@H](O)[C@H](O)[C@H]1O	6%	–	–
C[C@H]1C(=O)CC[C@@H]2[C@]1(C)CC[C@H]1[C@@]2(C)CC[C@@]2(C)[C@@H]3CC(C)(C)CC[C@]3(C)CC[C@]12C [FRIEDELINE]	4.2%	> 50 µM	–
Cc1c(C)c2c(c(C)c1O)CCC(C)(C(=O)O)O2 (stereo unspecified)	–	–	85.7%
CC1(C)CC[C@]2(C)CC[C@]3(C)C(=CC[C@@H]4[C@@]5(C)CCC(=O)C(C)(C)[C@@H]5CC[C@]43C)[C@@H]2C1	0%	> 50 µM	–
CC[C@H](CC[C@@H](C)[C@H]1CC[C@H]2[C@@H]3[C@@H](O)C=C4C[C@@H](O)CC[C@]4(C)[C@H]3CC[C@]12C)C(C)C	17.1%	> 50 µM	–
C=CC(C)(C)c1[nH]c2c(CC=C(C)C)cc(CC=C(C)C)cc2c1C[C@@H]1NC(=O)[C@H](C)NC1=O [ECHINULIN]	8.8%	> 50 µM	–
CC1(C)CC[C@]2(C)CC[C@]3(C)[C@H]4CC=C5[C@@H](CC[C@H](O)C5(C)C)[C@]4(C)CC[C@@]3(C)[C@@H]2C1 [GLUTINOL]	19.2%	> 50 µM	–
CO[C@H]1[C@H](O)[C@@H](O)[C@@H](O)[C@H](O)[C@@H]1O [METHYLINOSITOL]	16.5%	> 50 µM	–
C[C@@H]1[C@@H](O)CC[C@]2(C)[C@H]3CC/C(=C\C(=O)O)[C@H](C)[C@@H]3[C@@H](O)C(=O)[C@@H]12 [NORERYTHROFORDIN A]	8.6%	> 50 µM	–
c1ccc2c(c1)[I+]c1ccccc1-2	85.1%	–	–
CC1(C)CC[C@]2(C)CC=C3[C@]4(C)CC[C@H]5C(C)(C)[C@@H](O)CC[C@]5(C)[C@H]4CC[C@@]3(C)[C@@H]2C1 [TARAXEROL]	11.6%	24.2 µM	–
CC[C@H](/C=C/[C@@H](C)[C@H]1CC[C@H]2C3=CC[C@H]4C[C@@H](O)CC[C@]4(C)[C@H]3CC[C@]12C)C(C)C	8.7%	> 50 µM	–
CC(=O)O[C@H]1CC[C@@H]2C(=CC[C@H]3[C@@]2(C)CC[C@@]2(C)[C@@H]4CC(C)(C)CC[C@]4(C)CC[C@]32C)C1(C)C [GLUTINOL ACETATE]	10.8%	> 50 µM	–
O=C(O)c1cc(O)c(O)c(O)c1 [GALLIC ACID]	21.5%	> 50 µM	85.6%
CC1(C)CC[C@]2(C)CC=C3[C@]4(C)CC[C@H]5C(C)(C)C(=O)CC[C@]5(C)[C@H]4CC[C@@]3(C)[C@@H]2C1 [TARAXERONE]	5.2%	46.5 µM	–
CC[C@H](CC[C@@H](C)[C@H]1CC[C@H]2[C@@H]3C[C@@H](O)C4=C[C@@H](O)CC[C@]4(C)[C@H]3CC[C@]12C)C(C)C	1.6%	> 50 µM	–
CC(=O)O[C@H]1CC[C@]2(C)[C@H]3CC=C4[C@@H]5CC(C)(C)CC[C@]5(C)CC[C@@]4(C)[C@]3(C)CC[C@H]2C1(C)C [beta-AMYRIN ACETATE]	9.2%	> 50 µM	–
CC1(C)CC[C@]2(C)CC[C@]3(C)[C@H]4CC=C5[C@@H](CCC(=O)C5(C)C)[C@]4(C)CC[C@@]3(C)[C@@H]2C1 [GLUTINONE]	6.6%	> 50 µM	–
